Measurements taken from patent US3954730A, “6-(Substituted-cycloalkylcarboxamide) penicillanic acids” (Bayer Aktiengesellschaft, priority 1973, dated 1976).
Counter-ions that a name gives are not always drawn.

What was measured:
E. coli 14 = assay: Minimum inhibitory concentration (MIC) in vitro, liquid medium test tube series dilution test; format: cell-based; conditions: 24 hours incubation at 37° C
Description: (§1) They were determined in a liquid medium in a test tube series dilution test, the readings being taken after 24 hours incubation at 37° C.
(§2) The numbers allotted to the compounds of the invention in Table 1 correspond to the numbers of the Preparative Examples in which the preparation of the particular compounds are described.
(§3) The MIC is indicated by the non-turbid test tube in the dilution series. A complete medium of the following composition was used as the growth medium: […]

E. coli C 165 = assay: as above; format: cell-based; conditions: 24 hours incubation at 37° C
Description: (§4) Table 1, which follows, specifies the minimum inhibitory concentrations (MIC) in vitro, in U/ml of nutrient medium of typical compounds of the invention. They were determined in a liquid medium in a test tube series dilution test, the readings being taken after 24 hours incubation at 37° C.
as §2, §3

Staph. aureus 133 = assay: as above; format: cell-based; conditions: 24 hours incubation at 37° C
Description: as §4, §2, §3

Staph. aureus 1756 = assay: as above; format: cell-based; conditions: 24 hours incubation at 37° C
Description: as §4, §2, §3

Ent. ATCC 9790 = assay: as above; format: cell-based, Enterococcus; conditions: 24 hours incubation at 37° C
Description: as §1, §2, §3

E. coli BE = assay: Turbidity test in Muller-Hinton nutrient broth at 100 μg/ml; format: cell-based; conditions: 24 hours
Salmonella sp. = assay: as above; format: cell-based
Shigella sp. = assay: as above; format: cell-based
[1] = test system: Proteus indolnegativ, sp.; assay: as above; format: cell-based
[2] = test system: Pasteurella pseudotuberculosis; format: cell-based; conditions: 100 μg/ml, 24 hours
Brucella sp. = format: cell-based; conditions: 100 μg/ml, 24 hours
Haemophilus influenzae = assay: Turbidity test in Muller-Hinton nutrient broth at 100 μg/ml; format: cell-based
Bordetella bronciseptica = assay: as above; format: cell-based
[3] = test system: Staphylococcus aureus 133; assay: as above; format: cell-based
[4] = test system: Neisseria catarrhalis sp.; assay: as above; format: cell-based
[5] = test system: Diplococcus pneumoniae sp.; assay: as above; format: cell-based
[6] = test system: Streptococcus pyogenes W.; assay: as above; format: cell-based
Enterococcus sp. = assay: as above; format: cell-based
Lactobacillus sp. = assay: as above; format: cell-based
[7] = test system: Corynebacterium diphteriae gravis; assay: as above; format: cell-based
[8] = test system: Corynebacterium pyrogenes M; assay: as above; format: cell-based
Clostridium botulinium = format: cell-based
Clostridium tetani = format: cell-based; conditions: 100 μg/ml, 24 hours

Row | Structure (SMILES) | MIC (E. coli 14) | MIC (E. coli C 165) | MIC (Staph. aureus 133) | MIC (Staph. aureus 1756) | MIC (Ent. ATCC 9790) | other results
1 | CC1(C)S[C@@H]2[C@H](NC(=O)C3CC(Cl)C(Cl)C3)C(=O)N2[C@H]1C(=O)O (some centres unmarked) [Example 7, sodium salt of 6-(3,4-dichlorocyclopentylcarboxamido)-penicillanic acid] | 32 U/ml | 128 U/ml | 0.1 U/ml | 32-64 U/ml | 8-16 U/ml | 
2 | CC1(C)S[C@@H]2[C@H](NC(=O)C3CC(Cl)C3)C(=O)N2[C@H]1C(=O)O (some centres unmarked) [Example 4, sodium salt of 6-(3-chloro-cyclobutylcarboxamido)-penicillanic acid] | 32-64 U/ml | 128-256 U/ml | 2-4 U/ml | 32-64 U/ml | 8-16 U/ml | 
3 | CC1(C)S[C@@H]2[C@H](NC(=O)C3(C)CC3(Cl)Cl)C(=O)N2[C@H]1C(=O)O (some centres unmarked) [Example 1, sodium salt of 6-(2,2-dichloro-1-methyl-cyclopropylcarboxamido)-penicillanic acid] | 128 U/ml |  | 0.2 U/ml | 32-64 U/ml | 16-32 U/ml | freedom from turbidity (anti-bacterial action) (E. coli BE): free from turbidity; freedom from turbidity (anti-bacterial action) (Salmonella sp.): free from turbidity; freedom from turbidity (anti-bacterial action) (Shigella sp.): free from turbidity; freedom from turbidity (anti-bacterial action) [1]: free from turbidity; freedom from turbidity (anti-bacterial action) [2]: free from turbidity; freedom from turbidity (anti-bacterial action) (Brucella sp.): free from turbidity; freedom from turbidity (anti-bacterial action) (Haemophilus influenzae): free from turbidity; freedom from turbidity (anti-bacterial action) (Bordetella bronciseptica): free from turbidity; freedom from turbidity (anti-bacterial action) [3]: free from turbidity; freedom from turbidity (anti-bacterial action) [4]: free from turbidity; freedom from turbidity (anti-bacterial action) [5]: free from turbidity; freedom from turbidity (anti-bacterial action) [6]: free from turbidity; freedom from turbidity (anti-bacterial action) (Enterococcus sp.): free from turbidity; freedom from turbidity (anti-bacterial action) (Lactobacillus sp.): free from turbidity; freedom from turbidity (anti-bacterial action) [7]: free from turbidity; freedom from turbidity (anti-bacterial action) [8]: free from turbidity; freedom from turbidity (anti-bacterial action) (Clostridium botulinium): free from turbidity; freedom from turbidity (anti-bacterial action) (Clostridium tetani): free from turbidity
4 | CC1(C)S[C@@H]2[C@H](NC(=O)C3CCC(Cl)C3)C(=O)N2[C@H]1C(=O)O (some centres unmarked) [Example 6, sodium salt of 6-(4-chloro-1-cyclopentylcarboxamide)-penicillanic acid] | 32 U/ml | 128 U/ml | 0.1 U/ml | 32-64 U/ml | 8-16 U/ml | 
5 | CC1(C)S[C@@H]2[C@H](NC(=O)C3(C#N)CCC3)C(=O)N2[C@H]1C(=O)O [Example 5, sodium salt of 6(1-cyano-1-cyclobutylcarboxamido)-penicillanic acid] | 32-64 U/ml | 128 U/ml | 0.2 U/ml | 128 U/ml | 8 U/ml | 
6 | CC1(C)S[C@@H]2[C@H](NC(=O)C3CCC(Cl)CC3)C(=O)N2[C@H]1C(=O)O (some centres unmarked) [Example 9, sodium salt of 6-(4-chloro-1-cyclohexylcarboxamido)-penciillanic acid] | 64 U/ml |  | 0.1 U/ml | 64 U/ml | 8-16 U/ml | 
7 | CC1(C)S[C@@H]2[C@H](NC(=O)C3(Cl)CCCC3=O)C(=O)N2[C@H]1C(=O)O (some centres unmarked) [Example 8, Sodium salt of 6-(cyclopentanone-2-chloro-2-carboxamido)-penicillanic acid] | 128 U/ml |  | 2-4 U/ml |  | 128 U/ml | 
8 | CC1(C)S[C@@H]2[C@H](NC(=O)C3(C)CC3(Br)Br)C(=O)N2[C@H]1C(=O)O (some centres unmarked) [Example 2, sodium salt of 6-(2,2-dibromo-1-methyl-cyclopropyl-carboxamido)-penicillanic acid] | 128 U/ml |  | 0.2 U/ml | 128 U/ml | 32 U/ml | 
9 | CC1(C)S[C@@H]2[C@H](NC(=O)C3CC3C#N)C(=O)N2[C@H]1C(=O)O (some centres unmarked) [Example 3, sodium salt of 6-(2-cyano-1-cyclopropylcarboxamido)-penicillanic acid] | 128-256 U/ml |  | 2-4 U/ml |  | 64-128 U/ml | 
